Experimental data from article PMC11451635, “A Broad Spectrum Lasso Peptide Antibiotic Targeting the Bacterial Ribosome” (Research Square, 2024).
In brackets after ≈: the same amount, converted by molar mass. Entries after “also recorded” stand apart in the source; their conditions may differ. Like-named read-outs stand apart in the source and are kept apart here. Where a SMILES comes first, the peptide text is derived from it. Bridges are numbered along the chain shown (N, C = ends).

Assays:
[1] = test system: Bacteroides fragilis GC73; test: MIC, gut bacteria; type: cell-based; settings: column MHB; method: BHI + L-cysteine, hemin, vitamin K, anaerobic, 37 °C
Experimental: (§1) MICs were determined using broth microdilution method in cation-adjusted Mueller-Hinton Broth (MHBII, BD Difco) following standard procedures unless stated otherwise. Mycobacteria susceptibility was tested in Middlebrook 7H9 medium supplemented with 10% OADC Enrichment (oleic acid, bovine albumin, dextrose, and catalase) (BD Difco). The compounds (2 to 4 μl) were mixed with diluted cultures (5–7 × 10^5 cfu/mL) in MHB (196 to 198 μL) in 96-well round-bottom plates, and 2-fold serial dilutions were made. Plates were incubated at 37°C for 18–22 h, and OD600 readings were taken on Synergy Microplate Reader (Biotek). MIC was determined to be the lowest concentration of antibiotics with no visible growth. For Mycobacterial cultures, the plates were read after two to three days. Susceptibility was also assessed in MOPS minimal medium with 0.4% glucose (M2106 Teknova) and RPMI-1640 medium. Serum effects were tested in MHB with 10% or 50% fetal bovine serum (Invitrogen) or human serum (Heat Inactivated, from human male AB plasma; Sigma-Aldrich). For anaerobic conditions, E. coli was incubated in BD GasPak™ EZ pouch systems. To adjust the pH of the media, 1M NaOH or 1N HCl was used.
(§2) For MIC testing using human microbiota strains, the cultures were grown in BHI supplemented with L-cysteine (0.5g/L), Hemin (10mg/L), and Vitamin K (1mg/L) in anaerobic chambers (37 °C, 5% H2, 10% CO2, 85% N2). […]

[2] = test system: Lactobacillus plantarum GC4; test: MIC, gut bacteria; type: cell-based; settings: column MHB; method: BHI + L-cysteine, hemin, vitamin K, anaerobic, 37 °C
Experimental: as §1, §2

[3] = test system: rabbit reticulocyte lysate (luc mRNA); test: In vitro translation in rabbit reticulocyte lysate; type: biochemical
Experimental: The effect of LAR on eukaryotic translation was assessed using Rabbit Reticulocyte Lysate System (L4960, Promega) programmed with firefly luciferase mRNA. In vitro reactions were assembled according to the manufacturer’s protocol in a nal volume of 10 μL supplemented with 0.02–50 μM of LAR or no antibiotic and incubated for 90 min at 30°C. After that, 2.5 μL from each reaction was mixed with 50 μl of prewarmed luciferase assay reagent, and the luminescence was measured in Infinite M200 PRO plate reader (TECAN) for 10 min at 25°C. The assay was performed in triplicate.

[4] = test system: E. coli ribosome; test: Translocation inhibition assay; type: biochemical, Escherichia coli; settings: 62.5 μM LAR or 250 μM negamycin, EF-G/GTP, primer extension
[5] = test system: ribosomes (E. coli PURExpress); test: Toeprinting assay; type: biochemical, Escherichia coli; settings: 1, 5 or 10 μM LAR, RST1 template
Experimental: Toe-printing analysis was carried out in the E. coli in vitro transcription-translation system assembled from the purified components (PURExpress, NEB) as described previously. Reactions either contained no antibiotic or were supplemented with 50 μM retapamulin or varying concentrations of LAR (1, 5, or 10 μM). The model RST1 template encoding a 21-aa long peptide containing all 20 proteinogenic amino acids[22] was generated by PCR using the primers RST1_F and FIRST1_R (Supplementary Table 1).

[6] = test system: E. coli BW25113 membrane; test: Propidium iodide uptake assay; type: cell-based, Escherichia coli; settings: propidium iodide 4 μM, 30 min, RT, fluorescence
Experimental: E. coli BW25113 cells were prepared as described above and mixed with propidium iodide (final concentration 4 μM). Cell suspension (190 μL) was then placed into wells of a 96-well black-wall plate and supplemented with 10 μL of compounds at various concentrations. Fluorescence (lex/lem: 535/617 nm) was monitored for 30 min at RT in a Synergy Microplate Reader (Biotek). Colistin was used as a positive control.

[7] = test system: E. coli BW25113 membrane; test: Membrane depolarization assay; type: cell-based, Escherichia coli; settings: DiOC2(3) 30 μM, 60 min, room temperature, fluorescence
Experimental: Mid-exponential phase E. coli BW25113 culture (OD600 0.3–0.5) was mixed with […] (DiOC2(3), ThermoFisher Scienti c) dye at a nal concentration of 30 μM and 190 μL of cells were placed into wells of a 96-well black plate. A volume of 10 μl of test compounds or DMSO was added, mixed by pipetting, and fluorescence was measured for 60 min at room temperature using a Synergy Microplate Reader (Biotek) (lex/lem: 450/670 nm). Carbonyl cyanide m-chlorophenyl hydrazone (CCCP) served as a positive control.

[8] = test system: strains with deletions of the individual identified genes; test: MIC in deletion strains of identified ETC/respiration genes; type: cell-based; settings: deletions of genes related to ETC and respiration
Experimental: as §1

[9] = test system: strains with odilorhabdin-resistance mutations; test: MIC in odilorhabdin-resistance mutants; type: cell-based; settings: three of 10 known odilorhabdin-resistance mutations
Experimental: as §1

[10] = test system: common anaerobe components of the human microbiome; test: Activity against human gut microbiome bacteria; type: cell-based; settings: BHI, anaerobic, 37 °C
Experimental: For MIC testing using human microbiota strains, the cultures were grown in BHI supplemented with L-cysteine (0.5g/L), Hemin (10mg/L), and Vitamin K (1mg/L) in anaerobic chambers (37 °C, 5% H2, 10% CO2, 85% N2). Candida albicans was cultivated in yeast nitrogen base (YNB) medium without amino acids (BD Difco).

[11] = test system: E coli BW25113 ΔbamBΔtolC; settings: 18–22 h
[12] = test system: E coli BW25113 ΔbamB; settings: 18–22 h
[13] = test system: E coli BW25113 ΔtolC; settings: 18–22 h
[14] = test system: Pseudomonas aeruginosa PAO1
[15] = test system: M. smegmatis MC^2 155
[16] = test system: Candida albicans ATCC 90028
[17] = test system: E. coli cell-free transcription-translation system (gfp mRNA); test: In vitro translation, GFP mRNA
[18] = test system: HEK293 cells; test: Cytotoxicity against human cells
[19] = test system: E. coli SQ110DTC; test: Selection of spontaneous rRNA resistant mutants

With `CC(C)[C@H](NC(=O)CNC(=O)[C@H](CCCNC(=N)N)NC(=O)CNC(=O)[C@H](Cc1ccccc1)NC(=O)[C@H](CCCCN)NC(=O)CNC(=O)[C@@H]1CC(=O)N[C@@H](CO)C(=O)N[C@@H](CCCCN)C(=O)N[C@@H](CCCCN)C(=O)N[C@@H](CO)C(=O)N[C@@H](CCCCN)C(=O)N2CCC[C@H]2C(=O)NCC(=O)N1)C(=O)N[C@@H](CCCCN)C(=O)N[C@@H](CCCNC(=N)N)C(=O)NCC(=O)O` [LAR, lariocidin] (SKKSKPGDGKFGRGVKRG-OH; lactam N-8) the MIC [1] was greater than 256 µg/mL, the MIC [2] was greater than 256 µg/mL and the “Effect on eukaryotic translation” value [3] was “only a marginal effect on eukaryotic translation”. For the same compound, the IC50 ([3]; luc mRNA, 0.02–50 μM LAR, 90 min, 30°C, luminescence, mean of three experiments, read-out: IC50, protein biosynthesis) was 14.2 µM, the “IC50 in mammalian cell-free translation vs bacterial” value ([3]; ratio to E. coli system IC50) was ~ 58 fold and the “Inhibition of ribosome translocation” value [4] was “inhibits ribosome translocation; also recorded: this reaction was inhibited when LAR was present”. For the same compound, the “Ribosome stalling (toeprint)” value [5] was “predominantly arrested at the start codon of a model mRNA but also stalled at internal codons of the ORF”, the Membrane permeabilization [6] was “did not permeabilize” and the Membrane depolarization [7] was “did not permeabilize or depolarize the bacterial membrane”. The “Change in MIC in deletion strains” value [8] was “no significant changes in MIC”, the “Increase in LAR MIC by odilorhabdin-resistance mutations” value [9] was 2–4 x and the “Activity vs gut microbiome anaerobes” value [10] was “no activity”. For the same compound, the MIC ([11]; MHB, 37°C) was 2 to 4 µg/mL, the MIC ([11]; RPMI-1640, 37°C) was no more than 0.25 µg/mL and the MIC ([12]; MHB, 37°C) was 32 µg/mL (≈ 17.1 µM). It also gave an MIC ([12]; RPMI-1640, 37°C) of 1 µg/mL (≈ 0.534 µM), an MIC ([13]; MHB, 37°C) of 2 to 4 µg/mL and an MIC ([13]; RPMI-1640, 37°C) of 0.5 µg/mL (≈ 0.267 µM). For the same compound, the MIC [14] was 64 to 128 µg/mL, the MIC [15] was 1 to 2 µg/mL and the “MIC (text)” value [15] was 1 to 2 µg/mL. The Antifungal action [16] was “no antifungal action”, the MIC ([16]; column MHB, method: yeast nitrogen base (YNB) without amino acids) was greater than 256 µg/mL and the “IC50 class in words, bacterial translation” value ([17]; E. coli in vitro transcription-translation system, DNA or RNA) was “submicromolar”. For the same compound, the IC50 ([17]; read-out: IC50, protein synthesis, gfp mRNA, E. coli cell-free system, real-time sfGFP fluorescence, 1 h, mean of three experiments) was 0.24 µM, the “Cytotoxicity against human cells” value [18] was “no human cell toxicity; also recorded: did not display hemolytic activity or cytotoxicity against human cells” and the “Effect of selected rRNA substitutions on MIC” value ([19]; 16S rRNA resistance mutations, Extended Data Fig. 6a) was “modest effects”. For the same compound, the “Frequency of resistant clones” value ([19]; MHB/agar, 64 μg/mL LAR (~4xMIC), 48 h, 37°C) was ~ 2×10^−8.
